Laboratory results as given in patent US20090203062A1, “Method For Identifying And/Or Quantifying Anti-Infective Compounds” (priority 2005, published 2009).

Legend:
Klebsiella pneumoniae [1] = assay: Klebsiella pneumoniae murine pulmonary infection model; format: in vivo; settings: 24 h post-infection, female Balb/cN mice
Experimental: Klebsiella pulmonary infection model was performed by intranasal instillation of 7-8 weeks old female Balb/cN with 20 μl containing […]. Compound or cefotaxime were injected intraperitoneally every 6 hours from the time of infection at the indicated doses. In vivo efficacy was assessed by measuring colony forming units (CFU) loads in the lungs at 24 h hours. Data analysis was performed using GraphPad Software Inc, San Diego, Calif., USA. Lane 1 is the initial load at time zero of the infection. Lane 2 is the load at 24 hours post-infection of mice treated with the vehicle only.

Klebsiella pneumoniae [2] = settings: Tetrahymena pyriformis present; compared with the antibiotic activity IC50; FIG. 9
Excerpt: Preparation of SM no glucose (SM-) and Tetrahymena Medium is as described in example 1. […] Strains description Same Klebsiella pneumoniae strain is used as in example 1. […] Preparation of Tetrahymena pyriformis (Tp): The same Tp is used as in example 1. The day of the screen, resuspend the Tp cells in SM- and distribute Tp cells in the 384 well plates. […] Liquid dispenser for medium distribution Fill the same number of test plates as above with SM- with the liquid dispenser plate filler. (To test the antibiotic activity of the compounds). […] Description of the mother plate of compounds Each mother plate containing 24 columns of compounds is composed of 4 control columns (1, 12, 13 and 24) of DMSO and 320 wells of compounds. The DMSO columns have to be arranged according to the library. […] Transfer of library compounds with the 384 pin replicator. A test plate for quantifying anti-virulence activity contains Tp solution. A test plate for quantifying antibiotic activity contains SM-. […]
Tp, Klebsiella pneumoniae, compound are prepared as described in example 2 and incubated in a matrix containing 384 wells (12×24) wells at 35° C. in humidity saturated incubator. […] Mutations or compound affecting pathogenicity could be assessed in terms of phenotype strength and potency, respectively with decreasing concentration of Tp.

In the case of C=CCSc1nnc(C)c(O)n1 [3-(allylsulfanyl)-5-hydroxy-6-methyl-1,2,4-triazine], the “reduction of CFU load in the lungs” value (Klebsiella pneumoniae [1]; 225 mg/kg/day intraperitoneally every 6 hours) is reported as 4 Log.

In the case of CO/N=C(\C(=O)N[C@@H]1C(=O)N2C(C(=O)O)=C(COC(C)=O)CS[C@H]12)c1csc(N)n1 [cefotaxime], the “reduction of CFU load in the lungs” value (Klebsiella pneumoniae [1]; 37.5 mg/kg/day intraperitoneally every 6 hours) is reported as 4 Log.

COc1cc(Cc2cnc(N)nc2N)cc(OC)c1OC [trimethoprim] was tested, and the “concentration at which the avirulence assay detected the antibiotic, lower than the IC50 of the antibiotic (sub-MIC effect)” value (Klebsiella pneumoniae [2]) was 2 Log.
